Data on one molecule can be found in patent publication US10759803B2, “Asparagine endopeptidase (AEP) inhibitors for managing cancer and compositions related thereto” (priority 2014, dated 2020).

In one series the target is T1, AEP (Homo sapiens, UniProt Q99538).
T1 construct: tested with purified active AEP, IC50 values for the top 8 candidates were found
T1 sequence (Q99538 18-323 limits assumed): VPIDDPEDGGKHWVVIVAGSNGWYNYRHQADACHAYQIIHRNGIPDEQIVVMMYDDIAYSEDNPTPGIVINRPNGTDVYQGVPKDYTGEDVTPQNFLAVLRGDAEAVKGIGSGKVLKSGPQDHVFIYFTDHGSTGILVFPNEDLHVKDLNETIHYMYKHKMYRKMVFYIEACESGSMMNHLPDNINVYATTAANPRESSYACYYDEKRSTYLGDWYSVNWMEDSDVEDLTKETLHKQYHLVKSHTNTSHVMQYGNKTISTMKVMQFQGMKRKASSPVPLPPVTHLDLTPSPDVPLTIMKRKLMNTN
Briefly: IC50 assay with purified recombinant AEP. The series is classed as biochemical. To be noted: purified active AEP; read-out: IC50 toward AEP. The procedure:
(§1) Purified recombinant enzyme was incubated with various concentrations of inhibitor in appropriate assay buffers in the presence of increasing concentrations of inhibitor. The formation of fluorescent product was monitored in duplicate reactions and the data was fit to appropriate equations to calculate the IC50 values.
(§2) To identify small-molecule inhibitors of AEP, a high-throughput screen was designed in conjunction with the Emory Chemical Biology Discovery Center. The screen incorporated mouse kidney lysates to assay a 54,384 compound library. […] Additional structural analysis and grouping allowed the compounds to be sorted into 8 distinct backbone families. […] The specificity of the compounds was also determined using four major cysteine proteases (FIG. 2).
Various concentrations of the appropriate compound were incubated with AEP reaction buffer (50 mM Sodium Citrate pH 5.5, 0.1% CHAPS, 60 mM Na2HPO4, 1 mM EDTA, final pH 6.0) and peptide substrate, 10 μM Cbz-Ala-Ala-Asn-AMC (Bachem). The reaction was initiated upon addition of 50 nM AEP and fluorescent product formation was monitored over 15 min. […] Data were analyzed with GraFit version 5.0.11 software package.

In another series the test system is Caco-2 monolayer. The series is described as follows: Caco-2 monolayer permeability screen. As to conditions: Table 1. A general note: Caco-2 monolayers are a common model of the intestinal barrier.
The target of a further series is Caspase-8 (Homo sapiens, UniProt Q14790). The series is described as follows: Specificity assay against Caspase-8. The series is classed as biochemical. The method, then:
as §1, §2

A further series has as its target Cathepsin-S (Homo sapiens, UniProt P25774). Briefly: Specificity assay against Cathepsin-S. The series is classed as biochemical. The procedure: as §1, §2
The next series addresses CYP2C19 (Homo sapiens, UniProt P33261). Briefly: CYP inhibition screening, CYP2C19. The series is classed as in vitro ADME.
The target of a further series is CYP2C9 (Homo sapiens, UniProt P11712). The series is described as follows: CYP inhibition screening, CYP2C9. The series is classed as in vitro ADME.
The next series concerns the target CYP3A4 (Homo sapiens, UniProt P08684). The series is described as follows: CYP inhibition screening, CYP3A4-Midazolam. The series is classed as in vitro ADME.
A further series has as its target CYP2D6 (Homo sapiens, UniProt P10635). Briefly: CYP inhibition screening, CYP2D6. The series is classed as in vitro ADME.
Another series has as its target T2, Caspase-3 (Homo sapiens, UniProt P42574).
T2 sequence (P42574 29-175 limits assumed): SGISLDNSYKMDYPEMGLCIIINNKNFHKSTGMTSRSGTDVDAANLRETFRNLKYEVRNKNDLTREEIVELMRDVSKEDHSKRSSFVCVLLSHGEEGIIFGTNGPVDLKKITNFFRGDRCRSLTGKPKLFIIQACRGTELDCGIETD
T2 sequence (P42574 176-277 limits assumed): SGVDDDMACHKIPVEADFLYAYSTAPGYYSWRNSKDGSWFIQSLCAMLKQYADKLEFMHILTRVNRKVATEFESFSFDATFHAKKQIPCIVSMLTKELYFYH
The series is described as follows: Specificity assay against Caspase-3. The series is classed as biochemical. The method, then:
as §1, §2

The target of the next series is T3, CYP1A2 (Homo sapiens, UniProt P05177).
T3 sequence (P05177 1-516): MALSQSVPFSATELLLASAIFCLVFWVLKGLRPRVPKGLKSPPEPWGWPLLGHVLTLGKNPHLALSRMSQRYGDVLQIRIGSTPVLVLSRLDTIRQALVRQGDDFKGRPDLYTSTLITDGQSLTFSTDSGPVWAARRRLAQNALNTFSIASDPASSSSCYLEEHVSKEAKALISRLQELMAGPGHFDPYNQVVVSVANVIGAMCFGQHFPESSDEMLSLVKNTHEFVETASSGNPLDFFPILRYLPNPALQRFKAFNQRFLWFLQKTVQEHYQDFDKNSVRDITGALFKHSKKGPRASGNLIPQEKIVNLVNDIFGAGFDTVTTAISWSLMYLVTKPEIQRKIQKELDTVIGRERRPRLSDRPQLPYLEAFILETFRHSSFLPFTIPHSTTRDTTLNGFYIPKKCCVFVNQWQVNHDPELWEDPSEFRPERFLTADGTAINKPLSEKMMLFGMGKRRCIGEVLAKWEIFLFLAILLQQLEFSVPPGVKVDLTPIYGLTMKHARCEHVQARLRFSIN
The series is described as follows: CYP inhibition screening, CYP1A2. The series is classed as in vitro ADME.

The target of the next series is Cathepsin-L (Homo sapiens, UniProt P07711). The series is described as follows: Specificity assay against Cathepsin-L. The series is classed as biochemical.
Series [1] has as its system amyloid precursor protein (APP) cleavage. Briefly: APP cleavage in OGD-treated primary cortical neurons. The series is classed as cell-based. To be noted: 0.1 μM compound. The method, then:
A. AEP activity, measured in primary neuronal cultures with 5 μM Cbz-Ala-Ala-Asn-AMC (x-axis denotes neurons were treated with 0.1 μM or 1.0 μM specified compound). B. Caspase activity, measured in primary neuronal cultures with 5 μM Ac-Asp-Glu-Val-Asp-AMC. C. Cathepsin activity, measured in primary neuronal cultures with 5 μM D-Val-Leu-Lys-AMC. D. Inhibition of APP cleavage. Lysates of primary cortical neurons pre-incubated with compounds for 30 min, underwent OGD for 4 hrs, were reperfused for 18 hrs (normoxia neurons remained at normoxic conditions). E. APP can be cleaved in a dose-dependent manner. Lysates of primary cortical neurons pre-incubated with compounds for 30 min, underwent OGD for 4 hrs, were reperfused for 18 hrs (normoxia neurons remained at normoxic conditions).
Depriving cells of oxygen and glucose is a cellular model that is employed to trigger acidosis in cultured cells. The efficacy of the compounds in a cellular model of oxygen-glucose deprivation (OGD) was determined in an effort to mimic the effects of stroke in primary cultured neurons. As a result of depriving neurons of oxygen and glucose-containing medium, AEP activity was doubled (FIG. 7A, ‘DMSO-Norm’ compared to ‘DMSO-OGD’), while Caspase-3 and Cathepsin activities remained relatively unchanged. […] Cleavage of APP is observed in response to only DMSO treatment (FIG. 7D, lane 2), and it appears that upon the treatment of 1 μM of compounds 10, 11, and 12, and just 0.1 μM of compound s31, 38 and 64, the cleavage was blocked, presumably due to AEP inhibition.

The subject of a further series is CYP3A. The series is described as follows: CYP inhibition screening, CYP3A-Testosterone. The series is classed as in vitro ADME.

CYP2D6, sequence (P10635 whole entry): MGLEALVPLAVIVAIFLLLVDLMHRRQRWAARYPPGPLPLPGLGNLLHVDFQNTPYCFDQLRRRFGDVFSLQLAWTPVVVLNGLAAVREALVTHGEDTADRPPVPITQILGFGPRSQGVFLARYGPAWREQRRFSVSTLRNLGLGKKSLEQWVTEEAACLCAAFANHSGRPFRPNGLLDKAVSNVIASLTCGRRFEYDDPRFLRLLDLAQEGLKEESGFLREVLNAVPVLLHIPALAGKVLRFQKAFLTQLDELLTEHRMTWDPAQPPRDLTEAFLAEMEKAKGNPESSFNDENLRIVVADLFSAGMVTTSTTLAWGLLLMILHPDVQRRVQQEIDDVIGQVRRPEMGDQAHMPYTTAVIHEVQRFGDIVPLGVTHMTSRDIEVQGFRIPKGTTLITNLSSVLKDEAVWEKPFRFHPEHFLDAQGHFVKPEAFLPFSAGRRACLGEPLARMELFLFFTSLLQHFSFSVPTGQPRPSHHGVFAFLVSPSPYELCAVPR
CYP3A4, sequence (P08684 whole entry): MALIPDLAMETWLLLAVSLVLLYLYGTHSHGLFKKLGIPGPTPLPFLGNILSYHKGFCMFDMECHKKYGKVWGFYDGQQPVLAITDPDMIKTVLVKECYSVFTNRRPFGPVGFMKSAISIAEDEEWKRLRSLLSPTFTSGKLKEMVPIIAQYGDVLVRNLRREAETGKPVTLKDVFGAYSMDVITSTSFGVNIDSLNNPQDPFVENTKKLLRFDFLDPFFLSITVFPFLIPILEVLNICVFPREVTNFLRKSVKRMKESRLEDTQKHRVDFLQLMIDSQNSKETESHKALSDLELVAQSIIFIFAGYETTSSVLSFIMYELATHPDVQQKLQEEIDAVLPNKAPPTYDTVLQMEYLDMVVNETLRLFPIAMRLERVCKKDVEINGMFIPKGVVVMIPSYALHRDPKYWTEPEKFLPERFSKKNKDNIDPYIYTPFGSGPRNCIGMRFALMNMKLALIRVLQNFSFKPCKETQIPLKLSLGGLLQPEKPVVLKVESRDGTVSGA
CYP2C9, sequence (P11712 whole entry): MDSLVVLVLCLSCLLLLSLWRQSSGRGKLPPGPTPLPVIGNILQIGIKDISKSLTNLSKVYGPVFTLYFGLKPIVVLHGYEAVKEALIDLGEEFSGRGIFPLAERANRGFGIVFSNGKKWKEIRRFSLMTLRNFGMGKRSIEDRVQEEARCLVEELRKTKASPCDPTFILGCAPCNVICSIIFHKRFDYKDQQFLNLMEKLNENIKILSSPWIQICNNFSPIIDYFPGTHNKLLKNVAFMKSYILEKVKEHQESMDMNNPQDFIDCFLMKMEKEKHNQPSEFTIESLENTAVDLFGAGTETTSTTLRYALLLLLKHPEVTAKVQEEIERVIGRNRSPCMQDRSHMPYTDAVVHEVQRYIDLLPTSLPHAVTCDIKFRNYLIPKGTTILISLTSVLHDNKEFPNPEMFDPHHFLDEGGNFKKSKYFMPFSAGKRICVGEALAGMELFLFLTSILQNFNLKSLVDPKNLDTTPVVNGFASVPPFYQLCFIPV
CYP2C19, sequence (P33261 whole entry): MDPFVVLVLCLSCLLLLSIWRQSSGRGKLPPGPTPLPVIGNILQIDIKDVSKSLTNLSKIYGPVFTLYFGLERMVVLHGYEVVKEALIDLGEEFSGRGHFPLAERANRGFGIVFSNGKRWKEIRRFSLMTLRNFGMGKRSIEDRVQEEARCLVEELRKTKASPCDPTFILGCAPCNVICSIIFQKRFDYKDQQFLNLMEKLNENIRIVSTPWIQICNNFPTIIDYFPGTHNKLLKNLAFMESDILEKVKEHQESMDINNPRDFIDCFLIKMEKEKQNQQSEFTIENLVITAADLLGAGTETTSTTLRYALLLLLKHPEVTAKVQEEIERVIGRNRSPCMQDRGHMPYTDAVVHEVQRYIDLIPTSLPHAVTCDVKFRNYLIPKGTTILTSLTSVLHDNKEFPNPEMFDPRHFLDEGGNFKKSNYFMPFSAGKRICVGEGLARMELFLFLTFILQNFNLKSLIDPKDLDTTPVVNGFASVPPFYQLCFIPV
Cathepsin-L, sequence (P07711 114-333, species assumed): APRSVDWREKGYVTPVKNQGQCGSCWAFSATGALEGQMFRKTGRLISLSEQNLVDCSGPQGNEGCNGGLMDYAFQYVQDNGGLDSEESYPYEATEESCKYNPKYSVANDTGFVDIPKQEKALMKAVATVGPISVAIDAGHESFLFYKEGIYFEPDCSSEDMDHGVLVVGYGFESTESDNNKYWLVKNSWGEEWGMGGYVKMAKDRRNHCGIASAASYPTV
Cathepsin-S, sequence (P25774 115-331, species assumed): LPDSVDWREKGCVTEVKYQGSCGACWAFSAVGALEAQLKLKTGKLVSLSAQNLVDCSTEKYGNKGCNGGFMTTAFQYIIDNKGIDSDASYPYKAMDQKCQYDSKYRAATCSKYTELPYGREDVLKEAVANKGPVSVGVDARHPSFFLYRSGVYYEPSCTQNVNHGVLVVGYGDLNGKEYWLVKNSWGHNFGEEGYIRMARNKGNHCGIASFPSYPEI
Caspase-8, sequence (Q14790 217-374 limits assumed, species assumed): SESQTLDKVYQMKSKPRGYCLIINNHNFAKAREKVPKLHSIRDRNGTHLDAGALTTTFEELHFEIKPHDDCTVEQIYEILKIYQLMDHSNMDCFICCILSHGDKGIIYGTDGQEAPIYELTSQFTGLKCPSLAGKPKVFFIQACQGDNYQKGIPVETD
Caspase-8, sequence (Q14790 385-479 limits assumed, species assumed): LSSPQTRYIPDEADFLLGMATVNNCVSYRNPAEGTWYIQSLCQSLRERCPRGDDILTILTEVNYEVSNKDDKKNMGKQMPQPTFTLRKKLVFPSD
Experimental for Caco-2 monolayer: To explore the in vitro ADME profiles of the compounds, additional tests were conducted.

By IC50 is commonly meant the concentration at which inhibition is half-maximal. As to `CCN(CC)c1ccc(CN2CCc3nc(C)[nH]c(=O)c3C2)c(OC)c1` [Compound 64], the IC50 at AEP was 2370 nM. For the same molecule, the “A −>B Papp” value with Caco-2 monolayer is “<LLOQ”. In the series with Caco-2 monolayer, the “B −> A Papp” value was “<LLOQ”. At Caspase-8, the “selectivity for AEP over Caspase-8” value is given as “over 40 fold”. Further, the “selectivity for AEP over Cathepsin-S” value on Cathepsin-S is reported as “over 40 fold”. The CYP2C19 inhibition worked out at 31.6% at CYP2C19 (3 μM) and 20.4% on CYP2C19 (10 μM). The results for the CYP2C9 inhibition on CYP2C9 (3 μM) and at CYP2C9 (10 μM) were 4.6% and 7.9%, respectively. For the same molecule, the results for the CYP3A4-Midazolam inhibition at CYP3A4 (3 μM) and on CYP3A4 (10 μM) were 0.6% and 10.1%, respectively. In addition, the CYP2D6 inhibition is reported as 34.6% on CYP2D6 (3 μM) and 58.3% on CYP2D6 (10 μM). In addition, the “selectivity for AEP over Caspase-3” value at Caspase-3 is on record as “about 6 fold”. The results for the CYP1A2 inhibition at CYP1A2 (3 μM) and on CYP1A2 (10 μM) were 73.7% and 22.2%, respectively. Besides, the “selectivity for AEP over Cathepsin-L” value on Cathepsin-L is reported as “over 40 fold”. In addition, in series [1], the “APP cleavage after OGD” value was “blocked”. For the same molecule, the CYP3A-Testosterone inhibition in the series with CYP3A (3 μM) is given as 1.5%; in the series with CYP3A (10 μM), −0.1%.
